{"source": "patent US9974795B2", "about": "“Anticancer agent composition” (CARNA BIOSCIENCES, INC., priority 2014, dated 2018)", "key": {"Colo205 cells": {"tested_on": "Colo205 cells", "assay": "FACS of PI-stained cells: cell cycle and rate of cell death (SubG1), Colo205", "assay_type": "cell-based", "settings": "for cell death induced by Cdc7 inhibitor on coadministration with Wee1 inhibitor MK-1775: Cdc7 inhibitor 0.1 μM, MK-1775 0.25, 0.5, 0.75 μM, FIG. 1 / FIG. 5; for cell death on coadministration with Chk1 inhibitor SCH900776: Cdc7 inhibitor 0.3 μM or 0.1 μM, SCH900776 3.3 μM, FIG. 9; for cell death on coadministration with Chk1 inhibitor UCN-01 / cell death on coadministration with Hsp90 inhibitor geldanamycin: Cdc7 inhibitor 0.1, 0.03 or 0.3 μM; for cell death on coadministration with Chk1 inhibitor UCN-01: UCN-01 333 nM, FIG. 10; for cell death on coadministration with Hsp90 inhibitor geldanamycin: geldanamycin 10 nM or 33 nM, FIG. 11", "procedure": "(§1) COLO205 (RCB2127, RIKEN BRC) was cultured in a 10-cm dish using an RPMI-1640 medium (Sigma-Aldrich Corp., R8758) supplemented with 10% FCS (Equitech-Bio, Inc.) and 5% penicillin-streptomycin (GIBCO/Thermo Fisher Scientific, Inc., 15140). The medium was removed from the cells in a well grown state (70 to 90% confluent), and the cells were dissociated from the dish by treatment with 2 mL of trypsin (TrypL Express, manufactured by GIBCO/Thermo Fisher Scientific, Inc.) and recovered into the same medium as above.\n(§2) The recovered cells of each line were seeded at 2.5×10^5 cells/ml/well to a 6-well plate (BD Falcon, catalog No. 353046). The cells were cultured overnight in a 5% CO2 incubator. On the next day, 500 μl of a medium supplemented with 1.5 μl of a stock solution having a 1000-fold concentration of each compound to be added was added to each well, […]\n(§3) After the reaction of the cells with the compound for 48 to 72 hours, the cells were dissociated from the well by treatment with trypsin (TrypL Express, manufactured by GIBCO/Thermo Fisher Scientific, Inc.) and washed with DPBS. Then, 1 ml of cold ethanol was added thereto, and the cells were stored at −30° C. until staining. The cells were washed with DPBS once before staining and left standing with a propidium iodide (PI) solution at room temperature for 30 minutes or longer in the dark. The cells stained with PI were studied for the cell cycle and the rate of cell death indicated by SubG1 using FACS."}, "NHDF cells": {"tested_on": "NHDF cells", "assay": "FACS of PI-stained cells: cell death, normal NHDF cells", "assay_type": "cell-based", "settings": "Cdc7 inhibitor 0.1 μM, MK-1775 0.25, 0.5, 0.75 μM, FIG. 2", "procedure": "NHDF cells (Cryo NHDF-NeoCC-2509, manufactured by Sanko Junyaku Co., Ltd.) were cultured in a 10-cm dish using a medium (Brett Kit FGM2, CLCC-3132). The medium was removed from the NHDF cells in a well grown state (70 to 90% confluent), and the cells were washed with 5 mL of HEPES-buffered saline in a subculture reagent set (CLCC-5034, manufactured by Sanko Junyaku Co., Ltd.).\nAfter removal of the HEPES-buffered saline, the whole dish was covered with 3 mL of a trypsin/EDTA solution included in the set. The cells were dissociated from the dish by giving a small impact on the side of the dish with taps of a hand. Then, 3 mL of a trypsin-neutralizing solution included in the set was added to the cells, which were then recovered.\nas §2\nAfter the reaction of the cells with the compound for 48 to 72 hours, the cells were dissociated from the well by treatment with trypsin (TrypL Express, manufactured by GIBCO/Thermo Fisher Scientific, Inc.) and washed with DPBS. […]"}, "[1]": {"tested_on": "Panc-1 cells (pancreatic cancer cell line)", "assay": "FACS of PI-stained cells: cell death, Panc-1 cells", "assay_type": "cell-based", "settings": "Cdc7 inhibitor 0.1 μM, MK-1775 0.5 and 0.75 μM, FIG. 3", "procedure": "as §1, with “Panc-1 (ATCC, CRL-1469)” for “COLO205 (RCB2127, RIKEN BRC)”, “a D-MEM” for “an RPMI-1640”, “D5796)” for “R8758)”\nas §2\nas §3, with “The cells stained with PI were studied for the cell cycle and the rate of cell death indicated by SubG1 using FACS.” left out"}, "MDA-MB-231 cells": {"tested_on": "MDA-MB-231 cells", "assay": "Cell growth inhibition (number of nuclei, Hoechst 33342) with BLISS score evaluation", "assay_type": "cell-based, human", "settings": "72 hours, Cdc7 inhibitor 19.5 to 10000 nM, MK-1775 7.81 to 1000 nM, FIGS. 12-15", "procedure": "The BLISS scoring is a criterion often used in the evaluation of the synergistic effect of drugs used in combination (Borisy et al., Proc. Natl. Acad. Sci. USA. 100 (13): 7977-7982 (2003); and Buck et al., Mol. Cancer. Ther. 5 (11) (2006)). This BLISS scoring was used to analyze the effect of the Cdc7 inhibitor and the Wee1 inhibitor used in combination on the inhibition of cancer cell growth. […]\nAfter the addition of the compounds, the cells were incubated for 72 hours. […] Then, the number of nuclei (the number of cells) was measured using a cell image analyzer (ArrayScan VTI HCS Reader, Thermo Fischer Scientific, Inc.) (Ex/Em=350/461 nm).\nAfter 72 hours, the average number from the control wells was used as the number of untreated control cells (Gunt72), and the average number from the compound-treated wells was used as the number of compound-treated cells (G72). Wells in which the medium was merely replaced 24 hours after the cell inoculation were counted as an initial value and used as the initial number of cells (G0). […]\nAssuming that the first test compound and the second test compound each acted as a single agent (i.e., the rate of cell growth when the concentration of either of the compounds was 0), the theoretical BLISS independence (BLISSin) of each well can be calculated according to the following expression: BLISSin=G(First test compound)×G(Second test compound) […]"}, "[2]": {"settings": "Colo205, Cdc7 inhibitor 0.1 μM or 0.3 μM, MK-1775 0.5 μM, FIG. 8"}}}
{"smiles": "O=C(OCC1CC1)C1=C(NN2CCOCC2)O/C(=C\\c2c[nH]c3ncccc23)C1=O", "note": "[compound (I-E), cyclopropylmethyl 5-[(1H-pyrrolo[2,3-b]pyridin-3-yl)methylene]-2-(morpholinoamino)-4-oxo-4,5-dihydrofuran-3-carboxylate]", "values": [{"measurement": "cell death induced by Cdc7 inhibitor on coadministration with Wee1 inhibitor MK-1775", "setting": "Colo205 cells; Colo205", "result": "synergistically increased"}, {"measurement": "cell death on coadministration with Chk1 inhibitor SCH900776", "setting": "Colo205 cells; Colo205", "result": "synergistically increased"}, {"measurement": "cell death on coadministration with Chk1 inhibitor UCN-01", "setting": "Colo205 cells; Colo205", "result": "synergistically increased"}, {"measurement": "cell death on coadministration with Hsp90 inhibitor geldanamycin", "setting": "Colo205 cells; Colo205", "result": "synergistically increased"}, {"measurement": "cell death on coadministration with MK-1775, varied composition", "setting": "Colo205 cells; Colo205, compound (I-E):MK-1775 = 1:100 to 3:1 (ratio by μM), FIG. 4", "result": "sufficiently synergistically increased"}, {"measurement": "cytotoxicity to normal cells on addition of MK-1775", "setting": "NHDF cells", "result": "no increase"}, {"measurement": "cell death induced by Cdc7 inhibitor on coadministration with MK-1775", "setting": "[1]", "result": "synergistically increased"}, {"measurement": "inhibition of cancer cell growth in combined use with MK-1775 (BLISS score)", "setting": "MDA-MB-231 cells", "result": "synergistically inhibits"}]}
{"smiles": "CCOC(=O)C1=C(NN2CCN(CC(F)(F)F)CC2)O/C(=C\\c2c[nH]c3ncccc23)C1=O", "note": "[compound (I-D), ethyl 5-[(1H-pyrrolo[2,3-b]pyridin-3-yl)methylene]-4-oxo-2-{[4-(2,2,2-trifluoroethyl)piperazinyl]amino}-4,5-dihydrofuran-3-carboxylate]", "values": [{"measurement": "cell death induced by Cdc7 inhibitor on coadministration with Wee1 inhibitor MK-1775", "setting": "Colo205 cells; Colo205", "result": "synergistically increased"}, {"measurement": "cell death on coadministration with Chk1 inhibitor SCH900776", "setting": "Colo205 cells; Colo205", "result": "synergistically increased"}, {"measurement": "cell death on coadministration with Chk1 inhibitor UCN-01", "setting": "Colo205 cells; Colo205", "result": "synergistically increased"}, {"measurement": "cell death on coadministration with Hsp90 inhibitor geldanamycin", "setting": "Colo205 cells; Colo205", "result": "synergistically increased"}, {"measurement": "cytotoxicity to normal cells on addition of MK-1775", "setting": "NHDF cells", "result": "no increase"}, {"measurement": "cell death induced by Cdc7 inhibitor on coadministration with MK-1775", "setting": "[1]", "result": "synergistically increased"}, {"measurement": "inhibition of cancer cell growth in combined use with MK-1775 (BLISS score)", "setting": "MDA-MB-231 cells", "result": "synergistically inhibits"}]}
{"smiles": "NC(=O)c1cc(-c2ccnc(N)n2)[nH]c1-c1ccc(Cl)cc1Cl", "note": "[compound (I-G), 5-(2-amino-pyrimidin-4-yl)-2-(2,4-dichloro-phenyl)-1H-pyrrole-3-carboxylic acid amide, reference compound]", "values": [{"measurement": "cell death on coadministration with MK-1775", "setting": "Colo205 cells; [2]", "result": "synergistically increased"}]}
{"smiles": "CCOC(=O)C1=C(N2CCc3ccc(OC)cc3C2)O/C(=C\\c2c[nH]c3ncccc23)C1=O", "note": "[compound (I-B), ethyl 5-[(1H-pyrrolo[2,3-b]pyridin-3-yl)methylene]-2-(7-methoxy-3,4-dihydroisoquinolin-2(1H)-yl)-4-oxo-4,5-dihydrofuran-3-carboxylate]", "values": [{"measurement": "cell death on coadministration with MK-1775", "setting": "Colo205 cells; Colo205, compound (I-B) 0.3 μM, FIG. 6", "result": "synergistically increased"}]}
{"smiles": "C=CCn1c(=O)c2cnc(Nc3ccc(N4CCN(C)CC4)cc3)nc2n1-c1cccc(C(C)(C)O)n1", "note": "[MK-1775, reference compound]", "values": [{"measurement": "proportion of cells in the M-phase", "setting": "Colo205 cells; MK-1775 0.1 to 1 μM", "result": "increased"}]}
{"smiles": "O=C1NCCc2[nH]c(-c3ccncc3)cc21", "note": "[compound (I-F), 2-(pyridin-4-yl)-1,5,6,7-tetrahydro-4H-pyrrolo[3,2-c]pyridinone, reference compound]", "values": [{"measurement": "cell death on coadministration with MK-1775", "setting": "Colo205 cells; [2]", "result": "synergistically increased"}]}
{"smiles": "CC(C)OC(=O)C1=C(NN2CCOCC2)OC(=Cc2c[nH]c3ncccc23)C1=O", "note": "[compound (I-A), isopropyl 5-[(1H-pyrrolo[2,3-b]pyridin-3-yl)methylene]-2-(morpholinoamino)-4-oxo-4,5-dihydrofuran-3-carboxylate]", "values": [{"measurement": "cell death induced by Cdc7 inhibitor on coadministration with Wee1 inhibitor MK-1775", "setting": "Colo205 cells; Colo205", "result": "synergistically increased"}]}
{"smiles": "CC(C)OC(=O)C1=C(NN2CCN(CC(F)(F)F)CC2)O/C(=C\\c2c[nH]c3ncccc23)C1=O", "note": "[compound (I-C), isopropyl 5-[(1H-pyrrolo[2,3-b]pyridin-3-yl)methylene]-4-oxo-2-{[4-(2,2,2-trifluoroethyl)piperazinyl]amino}-4,5-dihydrofuran-3-carboxylate]", "values": [{"measurement": "cell death on coadministration with MK-1775", "setting": "Colo205 cells; Colo205, compound (I-C) 0.1 μM or 0.3 μM, FIG. 7", "result": "synergistically increased"}]}
